In data set [1] the test system is KB. The data set can be described thus: Cytotoxicity against human KB cells at 10 ug/mL after 24 hrs by MTT assay. Format: functional, cell-based. A general note: Formazan colour is commonly taken as a measure of viable cells.
Data set [2] deals with LoVo. In words: Cytotoxicity against human LoVo cells at 10 ug/mL after 24 hrs by MTT assay. Type of data set: functional, cell-based.
Data set [3] is described as follows: Toxicity in brine shrimp at 100 ppm. Format: organism-based. The conditions noted are these: artemia, in vivo; read-out: Activity.
The test system of data set [4] is MOLT-4. The data set can be described thus: Cytotoxicity against human MOLT4 cells after 24 hrs by MTT assay. Format: functional, cell-based. The note with it: MOLT-4, 24 h.
Data set [5] has as its system MCF7. The data set can be described thus: Cytotoxicity against human MCF7 cells after 24 hrs by MTT assay. Type of data set: functional, cell-based. The conditions noted are these: MCF7, 24 h.
Data set [6] is described as follows: Toxicity in brine shrimp at 10 ppm. Type of data set: organism-based. The conditions noted are these: artemia, in vivo; read-out: Activity.

Molecules are shown by their SMILES. Activity calls are given as the source filed them. No cut-off for these calls is given here.

Results on two molecules are retold here after ChEMBL document CHEMBL1151483, “Hantupeptin A, a cytotoxic cyclic depsipeptide from a Singapore collection of Lyngbya majuscula” (J Nat Prod, 2009).

As to `C#CCCC[C@H]1OC(=O)[C@H]([C@@H](C)CC)NC(=O)[C@@H]2CCCN2C(=O)[C@H](Cc2ccccc2)OC(=O)[C@H](C(C)C)N(C)C(=O)[C@H](C(C)C)NC(=O)[C@H]1C`, the result in data set [1] and in data set [2] was inactive.

Consider `C#CCCC[C@@H]1OC(=O)[C@H](C(C)C)N(C)C(=O)[C@@H]2CCCN2C(=O)[C@H](Cc2ccccc2)OC(=O)[C@H]([C@@H](C)CC)N(C)C(=O)[C@H](C(C)C)NC(=O)C1C` (stereo partly drawn) [HANTUPEPTIN A], for which the mortality at 100 ppm in data set [3] stood at 100%. The result in data set [1] and in data set [2] was inactive. For the same molecule, the IC50 amounted to 32 nM in data set [4] and 4000 nM in data set [5]. The mortality at 10 ppm in data set [6] came out at 100%.

The IC50 is the concentration needed to halve the response being measured.
